How the values were obtained:
[1] = format: in vivo, rat; conditions: after iv or po administration of tanshinol; data not shown
CYP2B6 = target: T1, CYP2B6 (Homo sapiens, UniProt P20813); experiment: Inhibition of cDNA-expressed human CYP2B6; format: in vitro ADME; conditions: CYP2B6, 7-ethoxy-4-trifluoromethylcoumarin O-deethylation
T1 sequence (P20813 1-491): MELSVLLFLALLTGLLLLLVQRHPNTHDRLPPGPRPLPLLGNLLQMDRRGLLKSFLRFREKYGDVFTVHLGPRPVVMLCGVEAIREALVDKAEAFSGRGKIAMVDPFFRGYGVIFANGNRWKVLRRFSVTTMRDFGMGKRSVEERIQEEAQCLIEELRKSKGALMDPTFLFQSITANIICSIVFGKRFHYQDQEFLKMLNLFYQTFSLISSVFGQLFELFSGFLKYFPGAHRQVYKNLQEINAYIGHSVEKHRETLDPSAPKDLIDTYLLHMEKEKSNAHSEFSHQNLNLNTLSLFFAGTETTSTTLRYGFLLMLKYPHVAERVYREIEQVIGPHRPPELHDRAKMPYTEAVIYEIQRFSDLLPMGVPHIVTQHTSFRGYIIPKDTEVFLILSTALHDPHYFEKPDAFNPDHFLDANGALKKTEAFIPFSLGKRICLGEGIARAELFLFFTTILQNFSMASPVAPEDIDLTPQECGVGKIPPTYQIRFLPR

CYP2A6 = target: T2, CYP2A6 (Homo sapiens, UniProt P11509); experiment: Inhibition of cDNA-expressed human CYP2A6; format: in vitro ADME; conditions: CYP2A6, coumarin 7-hydroxylation
T2 sequence (P11509 1-494): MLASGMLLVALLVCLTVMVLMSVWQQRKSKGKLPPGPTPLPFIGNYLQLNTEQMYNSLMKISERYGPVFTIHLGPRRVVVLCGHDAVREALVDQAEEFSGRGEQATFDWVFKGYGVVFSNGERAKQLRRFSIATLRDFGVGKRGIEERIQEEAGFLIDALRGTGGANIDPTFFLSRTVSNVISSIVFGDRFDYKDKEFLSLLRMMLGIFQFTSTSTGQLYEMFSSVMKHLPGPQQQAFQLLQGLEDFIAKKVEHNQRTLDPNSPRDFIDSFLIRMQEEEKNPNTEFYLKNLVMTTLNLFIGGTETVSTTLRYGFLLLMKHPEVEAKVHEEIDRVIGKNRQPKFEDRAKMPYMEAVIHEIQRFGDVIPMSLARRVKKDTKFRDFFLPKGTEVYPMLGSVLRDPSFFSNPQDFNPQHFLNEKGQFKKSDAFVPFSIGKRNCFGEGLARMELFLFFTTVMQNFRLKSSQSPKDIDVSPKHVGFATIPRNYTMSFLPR

| Detection in rat samples [1] | Molecule | IC50 (CYP2B6) [µM] | IC50 (CYP2A6) [µM] |
| --- | --- | --- | --- |
| not detected | 8-O-methyltanshinol |  |  |
|  | N[C@@H]1C[C@H]1c1ccccc1 (racemic) [tranylcypromine] | 5.9 | 0.07 |
| not detected | COC(=O)C(O)Cc1ccc(O)c(O)c1 (stereo not shown) [tanshinol methyl ester] |  |  |

From PMC4422947 (Acta Pharmacologica Sinica, 2015)
